Calls of active or inactive are those of the source. No cut-off for these calls is given here.
Tests used:
[1] = Selectivity index, ratio of LC50 for mouse embryo HMC to IC50 for bloodstream form of Trypanosoma cruzi Y
Trypanosoma cruzi [2] = experiment: Trypanocidal activity against bloodstream form of Trypanosoma cruzi Y isolated from albino mouse blood after 24 hrs by neubauer chamber analysis; assay type: functional, organism-based
Trypanosoma cruzi [3] = experiment: Ratio of benznidazole IC50 to compound IC50 for bloodstream form of Trypanosoma cruzi Y; assay type: functional
[4] = Cytotoxicity against mouse embryo HMC after 24 hrs by Alamar blue assay; settings: mouse embryo HMC cells, read-out: LC50
Biomphalaria glabrata = experiment: Molluscicidal activity against Biomphalaria glabrata; assay type: functional, organism-based

| Structure (SMILES) | IC50 (Trypanosoma cruzi [2]) [µM] | also measured |
| --- | --- | --- |
| O=C1C=C(n2cc(-c3ccccc3)nn2)C(=O)c2ccccc21 | 10.9 | Ratio LC50/IC50 [1]: 18.9; Ratio IC50 (Trypanosoma cruzi [3]): 9.5; CC50 at 24 h [4]: 206 µM |
| CC1(C)OC2=C(C(=O)C(=O)c3ccccc32)C1n1cc(-c2ccc(F)cc2)nn1 (stereo not given) | 20.8 | Ratio IC50 (Trypanosoma cruzi [3]): 2.5 |
| O=C1C(O)=C(CNC2CCCC2)C(=O)c2ccccc21 | 361 | Activity (Biomphalaria glabrata): Active |
| Cc1ccc(-c2cn(C3C4=C(OC3(C)C)c3ccccc3C(=O)C4=O)nn2)cc1 (stereo not given) | 39.6 | Ratio IC50 (Trypanosoma cruzi [3]): 2.5 |
| O=C1C=C(Cl)C(=O)c2ccccc21 | 12.3 | Ratio LC50/IC50 [1]: 3.6; CC50 at 24 h [4]: 41.3 µM |
| O=C1C=C(n2cc(-c3ccc([N+](=O)[O-])cc3)nn2)C(=O)c2ccccc21 | 2010 | – |
| CC(C)=CCC1=C(OS(=O)(=O)c2ccc(C)cc2)C(=O)c2ccccc2C1=O | 158 | – |
| Cc1ccc(-c2cn(C3=CC(=O)c4ccccc4C3=O)nn2)cc1 | 113 | – |
| CC1(C)OC2=C(C(=O)C(=O)c3ccccc32)C1n1cc(-c2ccc(Br)cc2)nn1 (stereo not given) | 102 | – |
| CC1(C)OC2=C(C(=O)C(=O)c3ccccc32)C1n1cc(-c2ccc([N+](=O)[O-])cc2)nn1 (stereo not given) | 21.8 | Ratio IC50 (Trypanosoma cruzi [3]): 2.5 |
| CC1(C)CC2=C(O1)c1ccccc1C(=O)C2=O [NOR-BETA-LAPACHONE] | > 4800 | – |
| O=C1C=C(O)C(=O)c2ccccc21 [LAWSONE] | > 2500 | – |
| [N-]=[N+]=NC1=CC(=O)c2ccccc2C1=O | 41.6 | – |
| CC(C)(O)c1cn(C2=CC(=O)c3ccccc3C2=O)nn1 | 80.2 | – |
| O=C1C(O)=C(CN2CC3CCC2CC3)C(=O)c2ccccc21 | 397 | Activity (Biomphalaria glabrata): Active |
| CCOC(=O)c1cn(C2=CC(=O)c3ccccc3C2=O)nn1 | 67.6 | – |
| COc1ccc(-c2cn(C3=CC(=O)c4ccccc4C3=O)nn2)cc1 | 45.8 | – |
| O=C1C=C(n2cc(-c3ccc(Br)cc3)nn2)C(=O)c2ccccc21 | 492 | – |
| CC(C)(CO)NCC1=C(O)C(=O)c2ccccc2C1=O | 370 | Activity (Biomphalaria glabrata): Active |
| CC(C)=CCC1=C(OS(C)(=O)=O)C(=O)c2ccccc2C1=O | 25.7 | Ratio LC50/IC50 [1]: 0.6; CC50 at 24 h [4]: 16.7 µM |
| O=C1C(Cl)=C(n2cc(-c3ccccc3)nn2)C(=O)c2ccccc21 | 42 | – |
| O=C1C=C(n2cc(CO)nn2)C(=O)c2ccccc21 | 17.7 | Ratio LC50/IC50 [1]: 6.1; Ratio IC50 (Trypanosoma cruzi [3]): 5.8; CC50 at 24 h [4]: 107 µM |
| COc1ccc(-c2cn(C3C4=C(OC3(C)C)c3ccccc3C(=O)C4=O)nn2)cc1 (stereo not given) | 359 | – |
| CCCN(CCC)CC1=C(O)C(=O)c2ccccc2C1=O | 206 | Activity (Biomphalaria glabrata): Active |
| [N-]=[N+]=NC1=C(Cl)C(=O)c2ccccc2C1=O | 51.8 | Ratio IC50 (Trypanosoma cruzi [3]): 2 |
| O=C1C(O)=C(CN2CCCC2)C(=O)c2ccccc21 | 396 | Activity (Biomphalaria glabrata): Active |

Reference: ChEMBL document CHEMBL2021832, “On the search for potential anti-Trypanosoma cruzi drugs: synthesis and biological evaluation of 2-hydroxy-3-methylamino and 1,2,3-triazolic naphthoquinoidal compounds obtained by click chemistry reactions” (Eur J Med Chem, 2012)
